This is an account of results in ChEMBL document CHEMBL3826954, “Structure-Guided Discovery of Selective Antagonists for the Chromodomain of Polycomb Repressive Protein CBX7” (ACS Med Chem Lett, 2016).

The target in series [1] is T1, Chromobox protein homolog 7 (Homo sapiens) (UniProt O95931).
T1 sequence (whole entry): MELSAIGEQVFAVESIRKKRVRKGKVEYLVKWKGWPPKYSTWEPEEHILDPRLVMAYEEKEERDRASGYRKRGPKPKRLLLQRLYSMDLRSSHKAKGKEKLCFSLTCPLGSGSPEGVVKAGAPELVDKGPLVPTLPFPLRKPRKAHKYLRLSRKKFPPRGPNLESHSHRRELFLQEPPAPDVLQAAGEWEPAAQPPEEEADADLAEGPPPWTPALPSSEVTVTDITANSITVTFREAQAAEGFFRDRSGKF
Put plainly: Antagonist activity at CBX7ChD (7 to 66 residues) expressed in human PC3 cells assessed as transcriptional derepression of p16INK4a at 50 to 250 uM after 12 hrs by qPCR method. Format: cell-based. The conditions noted are these: PC-3. (In general: Real-time PCR tracks product formation cycle by cycle.)

The target of series [2] is T2, Chromobox protein homolog 7 (Mus musculus) (UniProt Q8VDS3).
T2 sequence (whole entry): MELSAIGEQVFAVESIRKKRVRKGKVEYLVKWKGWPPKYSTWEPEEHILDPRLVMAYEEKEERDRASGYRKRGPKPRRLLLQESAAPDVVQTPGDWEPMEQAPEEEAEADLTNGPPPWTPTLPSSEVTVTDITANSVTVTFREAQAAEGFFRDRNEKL
In words: Antagonist activity at CBX7ChD (7 to 66 residues) expressed in mouse embryonic stem cells assessed as transcriptional derepression of noggin at 0.5 uM after 18 to 36 hrs by qPCR method. Format: cell-based.

Series [3] is described as follows: Induction of transcriptional derepression of Gapdh in mouse embryonic stem cells at 0.5 uM after 18 to 36 hrs by qPCR method. The class given is cell-based. The conditions noted are these: embryonic stem cell.
Series [4] addresses T1, Chromobox protein homolog 7 (Homo sapiens). In words: Binding affinity to CBX7ChD (7 to 66 residues) (unknown origin) expressed in RIPL-BL21 (DE3)-CodonPlus competent cells assessed as enhancement of FITC-ANRIL-loopC/FITC-16mer-RNA binding to protein by fluorescence anisotropy assay. A general note: In fluorescence polarisation assays a small probe gives low polarisation when free and higher when bound to something large.

The target in series [5] is T2, Chromobox protein homolog 7 (Mus musculus). In words: Antagonist activity at CBX7ChD (7 to 66 residues) expressed in mouse embryoid bodies assessed as transcriptional derepression of p16INK4a mRNA levels at 1 to 2 uM after 12 hrs by qPCR method.
Series [6] addresses T3, Chromobox protein homolog 7 (Homo sapiens, UniProt O95931).
T3 sequence (O95931 whole entry): T1 sequence (whole entry)
In words: Binding affinity to CBX7ChD (7 to 66 residues) (unknown origin) expressed in RIPL-BL21 (DE3)-CodonPlus competent cells assessed as compound/protein/FITC-labeled loop C of ANRIL ternary complex formation by fluorescence anisotropy assay.

In series [7] the target is T2, Chromobox protein homolog 7 (Mus musculus). Put plainly: Antagonist activity at CBX7ChD (7 to 66 residues) expressed in mouse embryonic stem cells assessed as p16INK4a expression levels at 1 to 2 uM after 12 hrs by Western blot analysis. The class given is cell-based.
The target is the same in series [8]. Put plainly: Antagonist activity at CBX7ChD (7 to 66 residues) expressed in mouse embryonic stem cells assessed as reduction of protein occupancy at Hoxd3 gene locus at 0.5 uM after 18 to 36 hrs by ChIP analysis. The class given is cell-based.
Series [9] can be described thus: Induction of transcriptional derepression of HIF1a in human PC3 cells at 1 to 5 uM after 12 hrs by qPCR method. The conditions noted are these: pc-3, 12 h. Format: cell-based.
Series [10] has as its target T1, Chromobox protein homolog 7 (Homo sapiens). Put plainly: Antagonist activity at CBX7ChD (7 to 66 residues) expressed in human PC3 cells assessed as transcriptional derepression of p16INK4a after 12 hrs by qPCR method. The conditions noted are these: PC-3. Format: cell-based.
For series [11], the target named is T3, Chromobox protein homolog 7. Put plainly: Binding affinity to 15N-labeled CBX7ChD (7 to 66 residues) (unknown origin) expressed in RIPL-BL21 (DE3)-CodonPlus competent cells by HSQC/NMR titration.
In series [12] the target is T2, Chromobox protein homolog 7 (Mus musculus). In words: Antagonist activity at CBX7ChD (7 to 66 residues) expressed in mouse embryonic stem cells assessed as transcriptional derepression of Hoxd3 at 0.5 uM after 18 to 36 hrs by qPCR method. Format: cell-based.
Series [13] addresses T3, Chromobox protein homolog 7. In words: Binding affinity to CBX7ChD (7 to 66 residues) (unknown origin) expressed in RIPL-BL21 (DE3)-CodonPlus competent cells in presence of FITC-labeled SETDB1-K1170me3/H3K27me3/ANRIL-LoopC RNA by fluorescence anisotropy assay.

Active and inactive are the calls of the source. The calls are words filed in the database; no cut-off is given here.

On to `COc1cccc(C(=O)N2CCN(C(=O)COc3cc(C)c(NS(C)(=O)=O)c(C)c3)CC2)c1OC`, for which, in series [1], the inhibition result was “inactive”.

For orientation: Kd means a measure of binding affinity in units of concentration. As for `Cc1ccccc1Cn1c(=N)n(CC(O)c2ccc(Cl)c(Cl)c2)c2ccccc21` (stereo not given), the inhibition result in series [2], in [5], in series [7], in series [8] and in series [12] was “Active” each time. The Activity result in [3] was “Non-toxic”; in [4], “Dose-dependent effect”; in series [9], “Non-toxic”. The results for the Kd in [6] and in series [11] were 23.8 µM and 500 µM, respectively. In [10], the inhibition result is “Dose-dependent effect”.

As to `COc1cccc(C(=O)N2CCN(C(=O)COc3cc(C)c(N)c(C(C)C)c3)CC2)c1OC`, the inhibition entry in series [1] was “inactive”.

What is called Ki is a dissociation constant, usually derived from enzyme kinetics or from competition with a known ligand. For `CCS(=O)(=O)Nc1ccc(OCC(=O)N2CCN(C(=O)c3cccc(OC)c3OC)CC2)cc1C`, in series [13], the Ki came to 25 µM. In addition, the inhibition entry in series [1] was “inactive”.

With `COc1cccc(C(=O)N2CCN(C(=O)COc3cccc(C)c3)CC2)c1OC`, in [6], the Kd was found to be 125 µM. Moreover, the Ki in series [13] was determined as 33.1 µM. Besides, in [1], the inhibition entry was “inactive”.

As for `COc1cccc(C(=O)N2CCN(C(=O)COc3ccc(NC(C)=O)c(C)c3)CC2)c1OC`, in [1], the inhibition result was “inactive”.

For `COc1cccc(C(=O)N2CCN(C(=O)COc3cc(C)c(N)c(C)c3)CC2)c1OC`, in [13], the Ki was 16.9 µM.

With `CCS(=O)(=O)Nc1c(C)cc(OCC(=O)N2CCN(C(=O)c3cccc(OC)c3OC)CC2)cc1C`, the Ki in series [13] was determined as 10 µM. The inhibition result in [1] is “inactive”.

As for `COc1cccc(C(=O)N2CCN(C(=O)COc3ccc(N)c(C)c3)CC2)c1OC`, the Ki in series [13] was 39.3 µM.

`COc1cccc(C(=O)N2CCN(C(=O)COc3cc(C)c(NC(N)=O)c(C)c3)CC2)c1OC`: in [13], the Ki was determined as 4.8 µM.

For `COc1cccc(C(=O)N2CCN(C(=O)COc3ccc(NC(N)=O)c(C)c3)CC2)c1OC`, the Ki in series [13] amounted to 10 µM.
